molecular target: T1, purified CaM from bovine brain (Bos taurus, UniProt P62157); test: Surface plasmon resonance, equilibrium binding of CaM to immobilized INF2 peptides; conditions: SPR, in the presence of Ca2+ (1 mM CaCl2), 25 °C; Fig. 4B-D, Fig. S3F
T1 construct: Calmodulin from bovine brain; purchased Sigma-Aldrich Cat#208694; host or cells: bovine brain (tissue-purified)
Excerpt: For use in surface plasmon resonance analysis, the peptide corresponding to amino acids 2-19 of human INF2 and similar peptides with replacements in the W11, L14 and L18 residues were synthesized in an automated multiple peptide synthesizer (Multipep, Intavis, Köln, Germany) in the Proteomics Facility of the Centro Nacional de Biotecnología (CSIC, Madrid). The INF2 2–36 peptide was obtained as a bespoke product with the same modifications from pepMic (Suzhou, China). These peptides contained two G residues at its N terminus to separate the INF2 sequence from an additional N-terminal end K residue, which was biotinylated in the ε-amino group. For use in NMR studies, the INF2 2–36 and 2-19 peptides were synthesized to order, without any modification, by CASLO ApS (Denmark). All the peptides were synthesized using the solid-phase synthetic procedures and standard Fmoc [N-(9-fluorenyl)methoxycarbonyl] chemistry, and then underwent reverse-phase HPLC purification.
All surface plasmon resonance experiments were carried out at 25 °C in a Biacore 3000 (Cytiva) robotic biosensor. Analyses were performed using HBSP (10 mM HEPES pH 7.4, 150 mM NaCl, 0.005% surfactant P20) supplemented with 1 mM CaCl2 as running buffer and for the dilution of analytes and ligands. Biotinylated peptides were individually immobilized on a streptavidin-coated sensor chip in flow cells 2, 3 and 4 at a flow rate of 10 µl/min (20–50 RU captured). The empty flow cell 1 was used as a control for non-specific binding and bulk effects. Purified CaM was injected at different concentrations ranging from 13.2 nM to 9.6 µM in duplicate, at a flowrate of 50 µl/min, with an association time of 60 s followed by dissociation for 60 s. After that, the sensor chip was regenerated by injection of 10 mM glycine–HCl, pH 1.7, with a contact time of 12 s. […] Sensorgrams with different concentrations of CaM were overlaid, aligned and analyzed with BIAevaluation Software 4.1, using the double-reference method. […]

Sequence	affinity / interaction with CaM relative to the intact 2-19 peptide (in words)
KGGSVKEGAQRKAAAAKEKAG [Peptide W11L14L18A, 2-19 INF2 peptide with the triple W11L14L18A mutation]	undetectable
KGGSVKEGAQRKAAALKEKLG [Peptide W11A, 2-19 INF2 peptide with the W11A mutation]	undetectable
KGGSVKEGAQRKWAAAKEKAG [L14L18A 2-19 peptide, 2-19 INF2 peptide with the double L14L18A mutation]	reduced affinity

Reference: PMC9616786, “Structure and function of the N-terminal extension of the formin INF2” (Cellular and Molecular Life Sciences, 2022)
